How the values were obtained:
[1] = test system: gastric damage induced by indomethacin; assay: Indomethacin (80 mg/kg) gastric damage in rats, percent of gastric area damaged by image analysis; format: in vivo, Male CD-Sprague-Dawley rats; conditions: indomethacin + vehicle 5.56 ± 0.48
Description: The following test in rats was carried out to further establish the ability of gabapentin and Pregabalin to reduce the gastrointestinal damage caused by NSAIDS.
Male CD-Sprague-Dawley rats (132-202 g) were received and housed in a room with controlled temperature, humidity, and 12-hour light/dark cycle. After a period of acclimatization of 4 to 5 days, and after a 24-hour food fasting period, animals were used for the study described below.
Gabapentin or pregabalin (CI-1008) were dissolved in water and administered orally at the following doses: 1, 10, 100, and 200 mg/kg in a volume of 1 mL. Control animals were dosed with an equal volume of vehicle (1 mL of water). Sixty minutes later, all the animals received 1 mL of a solution of 80 mg/kg indomethacin dissolved in 5% aqueous NaHCO3. Control animals received 1 mL of 5% aqueous NaHCO3 orally. Experimental groups were as follows:
Animals were sacrificed by decapitation 4 hours post-indomethacin administration. The stomach was removed and opened along the greater curvature and its image digitized and stored on an optical disk using a 486-based PC computer equipped with CUE3 system imaging analysis software (Olympus Corp., Marietta, Georgia, USA). Two 6-mm biopsies were taken from a constant region of the gastric mucosa located in each side of the glandular portion of the stomach and their PGE2 content was measured using a commercially available ELISA kit (Assay Designs Inc., Ann Arbor, Michigan, USA). The presence of gastric damage was determined using the retrieved electronic image, and the extent of damage was measured using the CUE3 imaging software. Data are expressed as a percent of gastric area damaged and the PGE2 content (pg/mL).

[2] = test system: TNBS-Induced Chronic Colonic Allodynia; assay: TNBS-induced chronic colonic allodynia in rats (colonic distension threshold); format: in vivo, Male Sprague-Dawley rats; conditions: for Colonic Threshold: TNBS-treated rats, control 43.39, TNBS alone printed 1781; for dose relation of the inhibition of TNBS-induced colonic allodynia: gabapentin 100, 300, 500 mg/kg sc, CI-1008 30, 60, 100, 200 mg/kg sc; for colonic inflammatory effect of TNBS (colon weight, area of hyperemia and necrosis, colonic myeloperoxidase content): sc 30 minutes before measurement, Day 7 after TNBS
Description: GABA analogs were evaluated in rats suffering from chronic visceral allodynia induced by trinitrobenzene sulfonic acid (TNBS).
In humans, digestive disorders are often associated with visceral pain. In these pathologies, the visceral pain threshold is decreased, indicating a visceral hypersensitivity. Consequently, the following study was designed to evaluate the effect of injection of TNBS into the colon on visceral pain threshold in an experimental model of colonic distension.
Male Sprague-Dawley rats weighing 340 to 400 g were used in the study. The animals were housed three per cage in a regulated environment (20 ± 1°C, 50 ± 5% humidity, with light 8:00 AM to 8:00 PM). Under anethesia (ketamine 80 mg/kg i.p.; acepromazin 12 mg/kg i.p.), TNBS (50 mg/kg), or saline (1.5 mL/kg) was injected into the proximal colon (1 cm from the cecum). After the surgery, animals were individually housed in the regulated environment.
A balloon catheter (5-6 cm length) was inserted through the anus into the colon and kept in position (tip of balloon 5 cm from the anus) by taping the catheter to the base of the tail. The balloon was progressively inflated by step of 5 mm Hg, from 0 to 75 mm Hg, each step of inflation lasting 30 seconds. Each cycle of colonic distension was controlled by a standard barostat. The threshold corresponds to the pressure which produced the first abdominal contraction, at which time the cycle of distension was discontinued. To determine the colonic threshold, four cycles of distension were performed on the same animal.
In a second series, a group of eight rats treated with TNBS were subjected to a colonic distension session.
In a third series, a group of eight rats treated with TNBS received a subcutaneous (sc) injection of gabapentin or CI-1008 30 minutes prior to initiation of the colonic distension cycle.
All test compounds were dissolved in saline except TNBS. TNBS was dissolved in EtOH 30% (w/v). Subcutaneous injection of vehicle was given in a volume of […].
Statistical significance between each group was determined using a one-way ANOVA followed by Student's unpaired t-test. Differences were considered statistically significant at p <0.05.
Pain threshold (pressure of distension inducing the first abdominal contraction) after distal colonic distension was determined at Day 7 in two groups of awake rats: control animals and TNBS-treated animals. […] Inflammatory parameters (colon weight, area of hyperemia and necrosis and colonic myeloperoxidase content) were measured in the proximal colon at Day 7 after TNBS treatment.
Gabapentin (100, 300, and 500 mg/kg sc) and CI-1008 (30, 60, 100, and 200 mg/kg sc) were administered 30 minutes before colonic distension and measurement of the inflammatory parameters.

[3] = 1 mg/kg orally 60 min before indomethacin 80 mg/kg, 4 hours post-indomethacin, average ± standard error
[4] = 10 mg/kg orally 60 min before indomethacin 80 mg/kg
[5] = 100 mg/kg orally 60 min before indomethacin 80 mg/kg
[6] = 200 mg/kg orally 60 min before indomethacin 80 mg/kg

Row | SMILES | % Area Damaged [1, 3] [%] | % Area Damaged [1, 4] [%] | % Area Damaged [1, 5] [%] | % Area Damaged [1, 6] [%] | Colonic Threshold ([2]; 100 mg/kg sc) [mm Hg] | Colonic Threshold ([2]; 300 mg/kg sc) [mm Hg] | effect of TNBS on colonic pain (in words) ([2]; 500 mg/kg sc) | Colonic Threshold ([2]; 500 mg/kg sc) [mm Hg] | dose relation of the inhibition of TNBS-induced colonic allodynia [2] | colonic inflammatory effect of TNBS (colon weight, area of hyperemia and necrosis, colonic myeloperoxidase content) [2] | Colonic Threshold ([2]; 30 mg/kg sc 30 min before colonic distension, Day 7) [mm Hg] | Colonic Threshold ([2]; 60 mg/kg sc) [mm Hg] | allodynia induced by TNBS (in words) ([2]; 100 mg/kg sc) | Colonic Threshold ([2]; 200 mg/kg sc) [mm Hg]
1 | NCC1(CC(=O)O)CCCCC1 [Gabapentin, 1-(aminomethyl)-cyclohexane acetic acid] | 2.99 ± 0.46 | 3.96 ± 0.35 | 1.87 ± 0.1 | 1.43 ± 0.40 | 22.03 | 24.69 | completely blocked | 36.88 | inhibited in a dose-related manner | neither gabapentin nor CI-1008 inhibited |  |  |  | 
2 | CC(C)C[C@H](CN)CC(=O)O [CI-1008, (S)-3-(aminomethyl)-5-methylhexanoic acid] | 8.07 ± 2.19 | 4.07 ± 0.42 | 1.99± 0.25 | 0.34 ± 0.06 | 33.13 |  |  |  | dose-related inhibition | neither gabapentin nor CI-1008 inhibited | 2172 | 2547 | completely suppressed | 40.47

Reference: EP0974351A2, “Medicament for preventing and treating gastrointestinal damage” (JOUVEINAL, priority 1998, dated 2000)
